Measured values published in patent US20250145564A1, “SULFONYLUREA COMPOUND, PREPARATION METHOD THEREFOR, AND APPLICATION THEREOF” (SHANGHAI INSTITUTE OF MATERIA MEDICA, CHINESE ACADEMY OF …, priority 2021, published 2025).

Target: T1, sEH (human recombinant) (Homo sapiens, UniProt P34913)
T1 sequence (P34913 1-555): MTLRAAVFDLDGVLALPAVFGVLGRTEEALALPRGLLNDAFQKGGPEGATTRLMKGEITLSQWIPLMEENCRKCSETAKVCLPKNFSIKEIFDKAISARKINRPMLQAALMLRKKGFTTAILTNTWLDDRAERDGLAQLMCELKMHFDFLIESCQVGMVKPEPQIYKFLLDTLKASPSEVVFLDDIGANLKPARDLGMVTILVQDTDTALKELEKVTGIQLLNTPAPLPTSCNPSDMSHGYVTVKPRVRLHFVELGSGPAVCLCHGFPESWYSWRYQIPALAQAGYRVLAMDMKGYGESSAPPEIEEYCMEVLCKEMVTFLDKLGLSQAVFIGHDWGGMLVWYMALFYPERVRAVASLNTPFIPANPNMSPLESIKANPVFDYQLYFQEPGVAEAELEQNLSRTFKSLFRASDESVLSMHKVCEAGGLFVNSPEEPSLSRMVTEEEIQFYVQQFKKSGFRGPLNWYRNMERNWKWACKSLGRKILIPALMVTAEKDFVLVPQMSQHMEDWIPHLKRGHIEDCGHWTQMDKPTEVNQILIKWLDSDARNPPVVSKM
Test: sEH inhibition assay (fluorescence);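 note: enzyme preincubated with compound 30 min at 25 °C, then substrate added and fluorescence read after 15 min at 25 °C, 320 nm and 460 nm, versus DMSO negative control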
Method: sEH Assay Buffer was purchased from Cayman Chemical; sEH (human recombinant) was purchased from Cayman Chemical; sEH substrate was purchased from Cayman Chemical. The working solution of 20% DMSO for the compounds was prepared by mixing dimethyl sulfoxide with water in a volume ratio of 1:4, and shaking to mix well.
sEH Assay Buffer (10×), SEH (human recombinant) and sEH substrate were thawed on ice.
The sEH Assay Buffer (lux) was prepared into a 1×sEH Assay Buffer with deionized water. 12 μL of sEH was added with 588 µL of 1× Assay Buffer to be diluted 50 times to obtain a sEH working solution. 180 µL of 1× Assay Buffer was added into the corresponding wells; the sEH working solution was added to the corresponding wells at 5 μL/well; the working solution of 20% DMSO for the compounds was added into the corresponding wells at 5 μL/well, and blank wells and negative control wells added with an equal amount of DMSO were set. After centrifuged at 1000 rpm for 1 minute, the wells were incubated at 25° C. for 30 minutes. After incubation, the substrate was added into the 96-wells plate at 5 μL/well and the plate was centrifuged at 1000 rpm for 1 minute. After incubation at 25° C. for 15 minutes, fluorescence values were read at emission wavelengths of 320 nm and 460 nm.

Row | IC50 | SMILES
1 | < 0.2 µM | COc1ccc2c(c1)C(=O)N(CCc1ccc(S(=O)(=O)N(C)C(=O)NC3CCCCC3)cc1)C(=O)C2(C)C [Compound I-2]
2 | < 0.2 µM | COc1ccc(Cl)cc1C(=O)NCCc1ccc(S(=O)(=O)N(C)C(=O)NC2CCCCC2)cc1 [Compound I-3]
3 | 0.2 to 1 µM | CC(=O)c1ccc(S(=O)(=O)N(C)C(=O)NC2CCCCC2)cc1 [Compound I-5]
4 | 1 to 10 µM | C=CCN(C(=O)N[C@H]1CC[C@H](C)CC1)S(=O)(=O)c1ccc(CCNC(=O)N2CC(C)=C(CC)C2=O)cc1 [Compound I-6]
5 | 1 to 10 µM | Cc1ccc(S(=O)(=O)N(C(=O)NN2CC3CCCC3C2)C(C)C)cc1 (centres unmarked) [Compound I-7]
6 | 1 to 10 µM | CCC1=C(C)CN(C(=O)NCCc2ccc(S(=O)(=O)N(C(=O)N[C@H]3CC[C@H](C)CC3)C3CC3)cc2)C1=O [Compound I-8]
7 | 0.2 to 1 µM | CCC1=C(C)CN(C(=O)NCCc2ccc(S(=O)(=O)N(C)C(=O)N[C@H]3CC[C@H](CO)CC3)cc2)C1=O [Compound I-9]
8 | 0.2 to 1 µM | CCNC(=O)OC[C@H]1CC[C@H](NC(=O)NS(=O)(=O)c2ccc(CCNC(=O)N3CC(C)=C(CC)C3=O)cc2)CC1 [Compound I-10]
9 | < 0.2 µM | CCNC(=O)OC[C@H]1CC[C@H](NC(=O)N(C)S(=O)(=O)c2ccc(CCNC(=O)N3CC(C)=C(CC)C3=O)cc2)CC1 [Compound I-11]
10 | 0.2 to 1 µM | CCC1=C(C)CN(C(=O)NCCc2ccc(S(=O)(=O)NC(=O)N[C@H]3CC[C@H](COC(=O)NC4CC4)CC3)cc2)C1=O [Compound I-12]
11 | 1 to 10 µM | CCC1=C(C)CN(C(=O)NCCc2ccc(S(=O)(=O)NC(=O)N[C@H]3CC[C@H](COC(=O)Nc4ccc(OC(F)(F)F)cc4)CC3)cc2)C1=O [Compound I-13]
12 | 10 to 100 µM | CCC1=C(C)CN(C(=O)NCCc2ccc(S(=O)(=O)NC(=O)N[C@H]3CC[C@H](COC(=O)CN(C)C)CC3)cc2)C1=O [Compound I-14]
13 | 0.2 to 1 µM | CCC1=C(C)CN(C(=O)NCCc2ccc(S(=O)(=O)NC(=O)N[C@H]3CC[C@H](COC(=O)CN4CCCCC4)CC3)cc2)C1=O [Compound I-16]
14 | 10 to 100 µM | CCC1=C(C)CN(C(=O)NCCc2ccc(S(=O)(=O)NC(=O)N[C@H]3CC[C@H](C(=O)OC(C)OC(=O)OC4CCCCC4)CC3)cc2)C1=O (some centres unmarked) [Compound I-17]
15 | 10 to 100 µM | CCC1=C(C)CN(C(=O)NCCc2ccc(S(=O)(=O)NC(=O)N[C@H]3CC[C@H](COP(=O)(OCOC(=O)OC(C)C)OCOC(=O)OC(C)C)CC3)cc2)C1=O [Compound I-18]
16 | 10 to 100 µM | CCC1=C(C)CN(C(=O)NCCc2ccc(S(=O)(=O)N(C)C(=O)N[C@H]3CC[C@H](COCP(=O)(OCOC(=O)OC(C)C)OCOC(=O)OC(C)C)CC3)cc2)C1=O [Compound I-21]
17 | 1 to 10 µM | CCC1=C(C)CN(C(=O)NCCc2ccc(S(=O)(=O)N(C)C(=O)N[C@H]3CC[C@H](COC(C)=O)CC3)cc2)C1=O [Compound I-24]
18 | 0.2 to 1 µM | CCC1=C(C)CN(C(=O)NCCc2ccc(S(=O)(=O)NC(=O)N[C@H]3CC[C@H](COC)CC3)cc2)C1=O [Compound I-25]

Row | IC50 | SMILES
19 | 1 to 10 µM | CCC1=C(C)CN(C(=O)NCCc2ccc(S(=O)(=O)NC(=O)NC3CCC(C(=O)OC)CC3)cc2)C1=O (centres unmarked) [Compound I-26]
20 | 10 to 100 µM | CCC1=C(C)CN(C(=O)NCCc2ccc(S(=O)(=O)N(C)C(=O)NC3CCC(C(=O)O)CC3)cc2)C1=O (centres unmarked) [Compound I-27]
21 | 1 to 10 µM | CCC1=C(C)CN(C(=O)NCCc2ccc(S(=O)(=O)NC(=O)NC3CCC(C(=O)NC)CC3)cc2)C1=O (centres unmarked) [Compound I-29]
22 | 10 to 100 µM | CCCC1=C(C)CN(C(=O)NCCc2ccc(S(=O)(=O)NC(=O)NC3CCC(C(=O)OC)CC3)cc2)C1=O (centres unmarked) [Compound I-30]
23 | 1 to 10 µM | CCC1=C(C)CN(C(=O)NCCc2ccc(S(=O)(=O)NC(=O)N[C@H]3CC[C@H](OC(N)=O)CC3)cc2)C1=O [Compound I-31]
24 | 1 to 10 µM | Cc1cnc(C(=O)NCCc2ccc(S(=O)(=O)N(C)C(=O)NC3CCCCC3)cc2)cn1 [Compound I-32]
25 | 1 to 10 µM | Cc1ccc(S(=O)(=O)N(C)C(=O)NN2CCCCCC2)cc1 [Compound I-33]
26 | 1 to 10 µM | CCC1=C(C)CN(C(=O)NCCc2ccc(S(=O)(=O)N(C)C(=O)NC3CCC(CC)CC3)cc2)C1=O (centres unmarked) [Compound I-34]
27 | 1 to 10 µM | Cc1cc(C(=O)NCCc2ccc(S(=O)(=O)N(C)C(=O)NN3CCCCCC3)cc2)no1 [Compound I-35]
28 | 1 to 10 µM | Cc1ccc(S(=O)(=O)N(C)C(=O)NC2[C@@H](O)C3(C)CC[C@@H]2C3(C)C)cc1 (some centres unmarked) [Compound I-36]
29 | 1 to 10 µM | CCC1=C(C)CN(C(=O)NCCc2ccc(S(=O)(=O)N(CC)C(=O)N[C@H]3CC[C@H](C)CC3)cc2)C1=O [Compound I-37]
30 | 1 to 10 µM | CCC1=C(C)CN(C(=O)NCCc2ccc(S(=O)(=O)N(C(=O)N[C@H]3CC[C@H](C)CC3)C(C)C)cc2)C1=O [Compound I-38]
31 | 1 to 10 µM | CCC(=O)OC[C@H]1CC[C@H](NC(=O)NS(=O)(=O)c2ccc(CCNC(=O)N3CC(C)=C(CC)C3=O)cc2)CC1 [Compound I-39]
32 | 1 to 10 µM | CCC(=O)OC[C@H]1CC[C@H](NC(=O)N(C)S(=O)(=O)c2ccc(CCNC(=O)N3CC(C)=C(CC)C3=O)cc2)CC1 [Compound I-40]
33 | 1 to 10 µM | CCC1=C(C)CN(C(=O)NCCc2ccc(S(=O)(=O)NC(=O)N[C@H]3CC[C@H](COC(=O)C(C)C)CC3)cc2)C1=O [Compound I-41]
34 | 1 to 10 µM | CCC1=C(C)CN(C(=O)NCCc2ccc(S(=O)(=O)N(C)C(=O)N[C@H]3CC[C@H](COC(=O)C(C)C)CC3)cc2)C1=O [Compound I-42]
35 | 1 to 10 µM | CCC1=C(C)CN(C(=O)NCCc2ccc(S(=O)(=O)NC(=O)N[C@H]3CC[C@H](COC(=O)C(C)(C)C)CC3)cc2)C1=O [Compound I-43]
36 | 1 to 10 µM | CCC1=C(C)CN(C(=O)NCCc2ccc(S(=O)(=O)N(C)C(=O)N[C@H]3CC[C@H](COC(=O)C(C)(C)C)CC3)cc2)C1=O [Compound I-44]

Row | SMILES | IC50
37 | CCC1=C(C)CN(C(=O)NCCc2ccc(S(=O)(=O)NC(=O)N[C@H]3CC[C@H](CO[P@](=O)(N[C@@H](C)C(=O)OC(C)C)Oc4ccccc4)CC3)cc2)C1=O [Compound I-19] | 10 to 100 µM
38 | CCC1=C(C)CN(C(=O)NCCc2ccc(S(=O)(=O)N(C)C(=O)N[C@H]3CC[C@H](CO[P@](=O)(N[C@@H](C)C(=O)OC(C)C)Oc4ccccc4)CC3)cc2)C1=O [Compound I-22] | 10 to 100 µM
